Experimental data published in PubChem BioAssay (NCI).
Where “and” joins values, the source holds several entries; their conditions need not be identical. Equal entries are not always repeated.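 These data come from cells grown in 96-well plates and exposed to compound for 48 hours at five concentrations. GI50: concentration for 50% inhibition of growth. The concentration for full growth arrest is given as TGI.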

How the values were obtained:
Test in all cases: NCI tumour cell line growth inhibition, 48 h
[1] = system: RPMI-8226 leukemia
[2] = system: 786-0 renal
[3] = system: MDA-MB-231 breast
[4] = system: MDA-MB-468 breast
[5] = system: BT-549 breast
[6] = system: PC-3 prostate
[7] = system: DU-145 prostate
[8] = system: OVCAR-8 ovarian
[9] = system: NCI-H226 lung
[10] = system: A549 NSCLC
[11] = system: M14 melanoma
[12] = system: ACHN renal
[13] = system: KM12 colon
[14] = system: UACC-62 melanoma
[15] = system: NCI-H460 lung
[16] = system: HOP-92 NSCLC
[17] = system: UO-31 renal
[18] = system: COLO 205 colon
[19] = system: HL-60(TB) leukemia
[20] = system: SF-295 CNS
[21] = system: MCF7 breast
[22] = system: SF-268 CNS
[23] = system: MALME-3M melanoma
[24] = system: OVCAR-5 ovarian
[25] = system: LOX IMVI melanoma
[26] = system: SK-MEL-2 melanoma
[27] = system: MDA-MB-435
[28] = system: EKVX NSCLC
[29] = system: HOP-62 NSCLC
[30] = system: K-562 leukemia
[31] = system: TK-10 renal
[32] = system: SK-MEL-5 melanoma
[33] = system: OVCAR-4 ovarian
[34] = system: RXF 393 renal
[35] = system: U251 CNS
[36] = system: SK-MEL-28 melanoma
[37] = system: SNB-75 CNS
[38] = system: SF-539 CNS
[39] = system: IGROV1 ovarian
[40] = system: CCRF-CEM leukemia
[41] = system: NCI-H23 lung
[42] = system: UACC-257 melanoma
[43] = system: HCC-2998 colon
[44] = system: SR leukemia
[45] = system: HS 578T breast
[46] = system: A498 renal
[47] = system: T-47D breast
[48] = system: SN12C renal
[49] = system: HCT-15 colon
[50] = system: MOLT-4 leukemia
[51] = system: HCT-116 colon
[52] = system: SK-OV-3 ovarian
[53] = system: SNB-19 CNS
[54] = system: NCI-H522 lung
[55] = system: OVCAR-3 ovarian
[56] = system: NCI/ADR-RES ovarian
[57] = system: HT29 colon

SMILES: CSc1ccc(C(=O)Nc2ccc3nn(/C(C#N)=C/c4ccccn4)nc3c2)cc1
- GI50 [1]: 901 nM
- TGI [1]: 2970 nM
- GI50 [2]: 776 nM
- TGI [2]: 1500 nM
- GI50 [3]: 842 nM
- TGI [3]: 1740 nM
- GI50 [4]: 558 nM
- TGI [4]: 1360 nM
- GI50 [5]: 920 nM
- TGI [5]: 1950 nM
- GI50 [6]: 1510 nM
- TGI [6]: 6330 nM
- GI50 [7]: 1250 nM
- TGI [7]: 3850 nM
- GI50 [8]: 1480 nM
- TGI [8]: 14200 nM
- GI50 [9]: 1640 nM
- TGI [9]: 9690 nM
- GI50 [10]: 2200 nM
- TGI [10]: 11000 nM
- GI50 [11]: 866 nM
- TGI [11]: 1880 nM
- GI50 [12]: 808 nM
- TGI [12]: 1600 nM
- GI50 [13]: 1060 nM
- TGI [13]: 3080 nM
- GI50 [14]: 819 nM
- TGI [14]: 1720 nM
- GI50 [15]: 934 nM
- TGI [15]: 2110 nM
- GI50 [16]: 677 nM
- TGI [16]: 1930 nM
- GI50 [17]: 712 nM
- TGI [17]: 1390 nM
- GI50 [18]: 834 nM
- TGI [18]: 1590 nM
- GI50 [19]: 544 nM
- TGI [19]: 2190 nM
- GI50 [20]: 2360 nM
- TGI [20]: 9150 nM
- GI50 [21]: 687 nM
- TGI [21]: 1650 nM
- GI50 [22]: 1780 nM
- TGI [22]: 8870 nM
- GI50 [23]: 797 nM
- TGI [23]: 1960 nM
- GI50 [24]: 990 nM
- TGI [24]: 2510 nM
- GI50 [25]: 664 nM
- TGI [25]: 1340 nM
- GI50 [26]: 896 nM
- TGI [26]: 1900 nM
- GI50 [27]: 759 nM
- TGI [27]: 2560 nM
- GI50 [28]: 1260 nM
- TGI [28]: 5950 nM
- GI50 [29]: 1750 nM
- TGI [29]: 6640 nM
- GI50 [30]: 424 nM
- TGI [30]: 3300 nM
- GI50 [31]: 935 nM
- TGI [31]: 2200 nM
- GI50 [32]: 1390 nM
- TGI [32]: 4700 nM
- GI50 [33]: 1740 nM
- TGI [33]: 9640 nM
- GI50 [34]: 699 nM
- TGI [34]: 1360 nM
- GI50 [35]: 903 nM
- TGI [35]: 1890 nM
- GI50 [36]: 885 nM
- TGI [36]: 1820 nM
- GI50 [37]: 948 nM
- TGI [37]: 8250 nM
- GI50 [38]: 811 nM
- TGI [38]: 1530 nM
- GI50 [39]: 902 nM
- TGI [39]: 1980 nM
- GI50 [40]: 619 nM
- TGI [40]: 50000 nM
- GI50 [41]: 769 nM
- TGI [41]: 1540 nM
- GI50 [42]: 1280 nM
- TGI [42]: 4190 nM
- GI50 [43]: 854 nM
- TGI [43]: 1580 nM
- GI50 [44]: 327 nM
- TGI [44]: 4180 nM
- GI50 [45]: 1700 nM
- TGI [45]: 12600 nM
- GI50 [46]: 5570 nM
- TGI [46]: 11900 nM
- GI50 [47]: 1270 nM
- TGI [47]: 10900 nM
- GI50 [48]: 1140 nM
- TGI [48]: 2840 nM
- GI50 [49]: 511 nM
- TGI [49]: 1380 nM
- GI50 [50]: 658 nM
- TGI [50]: 2270 nM
- GI50 [51]: 822 nM
- TGI [51]: 1640 nM
- GI50 [52]: 5180 nM
- TGI [52]: 17500 nM
- GI50 [53]: 2140 nM
- TGI [53]: 8790 nM

SMILES: CN1CCN(C(=O)Oc2cc3c(c4ccccc24)[C@H](CCl)CN3C(=O)c2cc3cc(OCCCN4CCC4)ccc3[nH]2)[C@H]2CSSC[C@H]21
- GI50 [1]: 36 nM and 35.1 nM
- GI50 [3]: 32.1 nM and 37.8 nM
- TGI [3]: 92.9 nM and 83.7 nM
- GI50 [4]: 5.3 nM
- TGI [4]: 19.7 nM
- GI50 [5]: 19.2 nM and 54 nM
- TGI [5]: 74.1 nM and 348 nM
- GI50 [6]: 18 nM and 34 nM
- TGI [6]: > 15300 nM
- GI50 [7]: 4.29 nM and 5.32 nM
- GI50 [8]: 15.3 nM and 12.1 nM
- GI50 [9]: 31.8 nM
- TGI [9]: 1150 nM
- GI50 [10]: 4.96 nM
- TGI [10]: > 15300 nM
- GI50 [11]: 15.9 nM and 14.2 nM
- TGI [11]: 70 nM and 46.2 nM
- GI50 [12]: 2.5 nM
- TGI [12]: 8.71 nM
- GI50 [13]: 46.2 nM and 90.4 nM
- GI50 [14]: 10.5 nM and 4.24 nM
- TGI [14]: 26.4 nM and 21.3 nM
- GI50 [54]: 30.6 nM and 28.3 nM
- TGI [54]: 154 nM and 75.8 nM
- GI50 [15]: 1.63 nM
- TGI [15]: 268 nM
- GI50 [16]: 67.1 nM
- GI50 [18]: 25.5 nM and 21.7 nM
- TGI [18]: 106 nM and 50.4 nM
- GI50 [19]: 49.8 nM and 28.5 nM
- TGI [19]: 368 nM
- GI50 [20]: 10.6 nM and 2.14 nM
- TGI [20]: 52 nM and 5.86 nM
- GI50 [21]: 1.53 nM
- TGI [21]: 1530 nM
- GI50 [22]: 19.8 nM and 20.1 nM
- TGI [22]: 84.4 nM and 173 nM
- GI50 [23]: 18.2 nM and 19.3 nM
- TGI [23]: 39.6 nM and 40.9 nM
- GI50 [24]: 29 nM and 22.7 nM
- TGI [24]: 360 nM and 86.1 nM
- GI50 [25]: 3.15 nM
- TGI [25]: 24.8 nM
- GI50 [26]: 28.5 nM and 31.3 nM
- TGI [26]: 62.6 nM and 53.8 nM
- GI50 [27]: 20.3 nM and 25.1 nM
- TGI [27]: 47.9 nM and 55.4 nM
- GI50 [28]: 20.4 nM and 27.3 nM
- TGI [28]: 59.6 nM and 70.7 nM
- GI50 [29]: 9.09 nM and 9.6 nM
- TGI [29]: 33.2 nM and 45.3 nM
- GI50 [30]: 24.4 nM and 17.2 nM
- TGI [30]: > 15300 nM
- GI50 [33]: 43.3 nM and 73.5 nM
- TGI [33]: 553 nM and 446 nM
- GI50 [34]: 17.7 nM and 4.25 nM
- TGI [34]: 37.9 nM and 14.5 nM
- GI50 [35]: 18 nM and 3.56 nM
- TGI [35]: 2300 nM
- GI50 [36]: 18.7 nM
- TGI [36]: 40 nM
- GI50 [37]: 26 nM
- TGI [37]: 137 nM
- GI50 [55]: 28.1 nM and 50.5 nM
- TGI [55]: 88.3 nM and 292 nM
- GI50 [38]: 16.8 nM and 22.4 nM
- TGI [38]: 40.6 nM and 55.4 nM
- GI50 [40]: 42 nM and 18.4 nM
- GI50 [56]: 13.5 nM
- TGI [56]: 53.6 nM
- GI50 [41]: 6.68 nM and 4.34 nM
- TGI [41]: 25.1 nM and 19.6 nM
- GI50 [42]: 27.3 nM and 34.4 nM
- TGI [42]: 135 nM and 86.5 nM
- GI50 [43]: 16 nM and 22 nM
- TGI [43]: 47.3 nM and 52.7 nM
- GI50 [44]: 4.72 nM
- GI50 [45]: 100 nM and 141 nM
- TGI [45]: 591 nM and 810 nM
- GI50 [57]: 19.7 nM
- GI50 [47]: 28.6 nM
- TGI [47]: 598 nM
- GI50 [48]: 19.4 nM and 11.6 nM
- TGI [48]: 459 nM and 222 nM
- GI50 [49]: 13.1 nM and 11 nM
- TGI [49]: 40.7 nM and 50.6 nM
- GI50 [50]: 23.5 nM and 14.2 nM
- TGI [50]: 324 nM
- GI50 [51]: 8.63 nM and 45.7 nM
- TGI [51]: > 15300 nM
- GI50 [52]: 23.5 nM and 29.9 nM
- TGI [52]: 59.6 nM and 128 nM
- GI50 [53]: 23.2 nM and 17.9 nM
- TGI [53]: 2460 nM and 314 nM
